Data taken from publication PMC6277434, “Discovery of a potent HMG-CoA reductase degrader that eliminates statin-induced reductase accumulation and lowers cholesterol” (Nature Communications, 2018).

Target: T1, HMGCR (Cricetulus griseus, UniProt P00347)
T1 construct: endogenous in cells; host or cells: CHO-7, CHG, SRD-13A, SRD-15
T1 sequence (P00347 1-887): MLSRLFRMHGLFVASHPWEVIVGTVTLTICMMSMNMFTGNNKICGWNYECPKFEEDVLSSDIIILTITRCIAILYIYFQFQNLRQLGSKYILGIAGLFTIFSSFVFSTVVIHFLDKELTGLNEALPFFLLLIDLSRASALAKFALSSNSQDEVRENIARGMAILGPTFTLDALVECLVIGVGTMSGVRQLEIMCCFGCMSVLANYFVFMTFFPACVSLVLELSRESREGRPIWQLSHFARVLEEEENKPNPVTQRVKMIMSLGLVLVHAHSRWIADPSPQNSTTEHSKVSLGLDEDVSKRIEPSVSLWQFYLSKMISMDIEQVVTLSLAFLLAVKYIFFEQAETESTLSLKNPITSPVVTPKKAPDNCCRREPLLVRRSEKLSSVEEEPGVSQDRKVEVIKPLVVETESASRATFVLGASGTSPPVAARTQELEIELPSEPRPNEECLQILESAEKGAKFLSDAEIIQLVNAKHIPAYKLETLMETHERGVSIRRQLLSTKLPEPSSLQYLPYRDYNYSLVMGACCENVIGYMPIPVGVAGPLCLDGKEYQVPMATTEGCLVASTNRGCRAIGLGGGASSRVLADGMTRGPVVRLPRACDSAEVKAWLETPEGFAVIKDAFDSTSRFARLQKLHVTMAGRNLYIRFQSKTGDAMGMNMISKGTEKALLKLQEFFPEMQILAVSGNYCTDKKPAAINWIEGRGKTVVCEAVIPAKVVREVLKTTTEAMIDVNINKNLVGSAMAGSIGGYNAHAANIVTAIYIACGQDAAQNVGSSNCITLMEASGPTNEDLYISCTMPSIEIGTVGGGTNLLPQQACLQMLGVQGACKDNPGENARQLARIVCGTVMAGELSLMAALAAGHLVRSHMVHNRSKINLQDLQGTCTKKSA
Assay: Immunoblotting of endogenous HMGCR protein in CHO-7 (or CHG) cells
Format: cell-based, Chinese hamster
Conditions: for endogenous HMGCR protein (immunoblot), mean: DMSO = 100; for HMGCR protein fold change: untreated = 1
Procedure: CHO-7 (Chinese hamster ovary cell, a clone of CHO-K1 cell line selected for growth in LPDS) and Huh7 (a human hepatocellular carcinoma cell line), SRD-13A (a Scap-deficient CHO-7 cell line) and SRD-15 (an Insig-1 and Insig-2-deficient CHO-7 cell line) were generous gifts from Russell Debose-Boyd at UT Southwestern Medical Center, USA. All cells were grown in a monolayer at 37 °C with 5% CO2. Huh7 cells were maintained in medium A supplemented with 10% FBS. CHO-7 and SRD-15 cells were maintained in medium B supplemented with 5% FBS. SRD-13A cells were maintained in medium B with 5% FBS, 5 μg ml^−1 cholesterol, 1 mM sodium mevalonate, 10 μM sodium oleate. No cell lines used in this study were found in the database of commonly misidentified cell lines that is maintained by ICLAC and NCBI Biosample. The cell lines have not been authenticated recently. No test for mycoplasma contamination was performed.
Cells were harvested and homogenized in the RIPA buffer (50 mM Tris-HCl, pH 8.0, 150 mM NaCl, 2 mM MgCl2, 1.5% NP-40, 0.1% SDS, and 0.5% sodium deoxycholate) supplemented with protease cocktail inhibitor, 10 μM MG-132, 10 μg ml^−1 leupeptin and 1 mM phenylmethylsulfonyl fluoride. The protein concentrations of lysates were determined using BCA method (Beyotime). Samples were mixed with the membrane protein solubilization buffer (62.5 mM Tris-HCl, pH 6.8, 15% SDS, 8 M urea, 10% glycerol, and 100 mM DTT) plus the 4× loading buffer (150 mM Tris-HCl, pH 6.8, 12% SDS, 30% glycerol, 6% 2-mercaptoethanol, and 0.02% bromophenol blue) and incubated for 30 min at 37 °C. Proteins were resolved by SDS-PAGE and transferred to nitrocellulose membranes (GE Healthcare). Immnoblots were blocked with 5% non-fat milk in TBS containing 0.075% Tween-20 (TBST) and probed with indicated antibodies overnight at 4 °C. After washing in TBST for five times, blots were incubated with HRP-conjugated secondary antibodies for 2 h at room temperature. Immunoreactivity was developed with Clarity Western ECL chemiluminescent substrates (170–5061, Bio-Rad). Western blot images were captured by Amersham Imager 600 (GE Healthcare), and integrated optical intensities of each band were quantified by Image-Pro Plus 6 software (Media Cybernetics). Uncropped blots are shown in Supplementary Figs. 9–13.

Which “endogenous HMGCR protein (immunoblot), mean” value (“endogenous HMGCR protein” below) (CHO-7, 0.01 uM, 16 h) does the source give for `C=CCC(O)(CC=C)CCCC(C)C1CCC2C3C(O)C=C4C(C)(C)C(O)CCC4(C)C3CCC12C` (stereo not shown) [Cmpd 81] here?
The value was 96.5896.

And the “endogenous HMGCR protein” value (CHO-7, 0.03 uM, 16 h)?
Its value is 105.12.

What about the “endogenous HMGCR protein” value (CHO-7, 0.1 uM, 16 h) of the same compound?
Its value is 84.2505.

What about the “endogenous HMGCR protein” value (CHO-7, 0.3 uM, 16 h) of the same compound?
The value was 66.4121.

What about the “endogenous HMGCR protein” value (CHO-7, 1 uM, 16 h) of the same compound?
Its value is 9.931.

And the “endogenous HMGCR protein” value (CHO-7, 3 uM, 16 h)?
Its value is 3.826.

And the “HMGCR degradation induced by Cmpd 81 on addition of proteasome inhibitor MG-132” value (CHO-7, 10 μM MG-132, 5 h)?
The value was “completely blocked”.

And the “endogenous HMGCR protein” value (CHO-7, 10 uM, 16 h)?
Its value is 1.121.

And the “endogenous HMGCR protein” value (CHO-7, 20 uM, 16 h)?
Its value is 1.6114.

And the “HMGCR protein fold change” value (CHO-7, Cmpd 81 1 μM with lovastatin 1 μM)?
The value was 5.141.

What about the “HMGCR protein fold change” value (CHO-7, Cmpd 81 1 μM, without lovastatin) of the same compound?
Its value is 0.3231.

And the “HMGCR protein fold change” value (CHO-7, Cmpd 81 3 μM with lovastatin 1 μM)?
Its value is 1.706.

What about the “HMGCR protein fold change” value (CHO-7, Cmpd 81 3 μM, without lovastatin) of the same compound?
The value was 0.1204.

And the “HMGCR protein fold change” value (CHO-7, Cmpd 81 10 μM with lovastatin 1 μM)?
The value was 0.399.

And the “reduction in HMGCR” value (CHO-7 cells, 1 μM, 16 h)?
The value was “more than 80%”.

And the EC50 (CHO-7 cells, 16 h, read-out: EC50 to decrease endogenous HMGCR (dose–response immunoblotting))?
Its EC50 is 390 nM.

What about the “HMGCR protein induced by simvastatin, pravastatin, fluvastatin, atorvastatin and rosuvastatin” value (cultured cells) of the same compound?
Its value is “similarly reduced”.

What does the source list for `CC[C@H](C)C(=O)O[C@H]1C[C@@H](C)C=C2C=C[C@H](C)[C@H](CC[C@@H]3C[C@@H](O)CC(=O)O3)[C@H]21` [Lovastatin, lovastatin]?
HMGCR protein level, mean (CHO-7, lovastatin 0.001 uM, 16 h, DMSO = 1): 1.706; HMGCR protein level, mean (CHO-7, lovastatin 0.003 uM, 16 h, DMSO = 1): 2.872; HMGCR protein level, mean (CHO-7, lovastatin 0.01 uM, 16 h, DMSO = 1): 6.395; HMGCR protein level, mean (CHO-7, lovastatin 0.03 uM, 16 h, DMSO = 1): 10.2955; HMGCR protein level, mean (CHO-7, lovastatin 0.1 uM, 16 h, DMSO = 1): 11.6269; HMGCR protein level, mean (CHO-7, lovastatin 0.3 uM, 16 h, DMSO = 1): 13.3691; HMGCR protein fold change (CHO-7, lovastatin 1 μM alone): 16.2295; HMGCR protein level, mean (CHO-7, lovastatin 1 uM, 16 h, DMSO = 1): 14.123; HMGCR protein level, mean (CHO-7, lovastatin 3 uM, 16 h, DMSO = 1): 14.7817; HMGCR protein level, mean (CHO-7, lovastatin 10 uM, 16 h, DMSO = 1): 14.2587; increase of HMGCR protein (maximum increment) (CHO-7 cells, statin 16 h, DMSO = 1): ~ 15 fold
